Holding throughout (type): functional
Experiment [1] concerns Enterococcus faecium. Briefly: In vitro antibacterial activity against Enterococcus faecium ATCC 8043 organism, activity expressed as minimum inhibitory concentration (MIC).
Experiment [2] relates to Escherichia coli. Briefly: In vitro antibacterial activity against Escherichia coli juhl organism, activity expressed as minimum inhibitory concentration (MIC).
Experiment [3] concerns Pseudomonas aeruginosa. Kind of experiment: In vitro antibacterial activity against Pseudomonas aeruginosa K799/WT organism, activity expressed as minimum inhibitory concentration (MIC).
The test system of experiment [4] is Staphylococcus aureus. Briefly: In vitro antibacterial activity against Staphylococcus aureus 1775 organism expressed as minimum inhibitory concentration (MIC).
Experiment [5] has as its system Streptococcus pyogenes. Kind of experiment: In vitro antibacterial activity against Streptococcus pyogenes 930 organism, activity expressed as minimum inhibitory concentration (MIC).
Experiment [6] has as its system Staphylococcus aureus. Briefly: In vitro antibacterial activity against Staphylococcus aureus NCTC 10649M organism expressed as minimum inhibitory concentration (MIC).

Here are results for twelve molecules from ChEMBL document CHEMBL1129922, “Preparation and antibacterial activity of pyridopyridone analogs: C-1 modifications” (1997).

Values after ≈ are worked out from the molar mass of the structure shown.

Take `Cc1c(N2CC[C@H](N)C2)c(F)cn2c(=O)c(C(=O)O)ccc12`: the MIC (as a rule, the lowest concentration found to suppress growth) in experiment [1] is 25 µg/mL (≈ 81.9 µM); in experiment [2] it was 0.39 µg/mL (≈ 1.28 µM); in experiment [3], 6.2 µg/mL (≈ 20.3 µM); in experiment [4], more than 100 µg/mL; in experiment [5] it was 12.5 µg/mL (≈ 40.9 µM); in experiment [6], 3.1 µg/mL (≈ 10.2 µM).

In the case of `C=CCc1cc(C(=O)O)c(=O)n2cc(F)c(N3CC[C@H](N)C3)c(C)c12`, the minimum inhibitory concentration (MIC) in experiment [1] is 1.56 µg/mL (≈ 4.52 µM); in experiment [2], 1.56 µg/mL (≈ 4.52 µM); in experiment [3], 3.1 µg/mL (≈ 8.98 µM); in experiment [4], more than 100 µg/mL; in experiment [5] it was 1.56 µg/mL (≈ 4.52 µM); in experiment [6], 0.78 µg/mL (≈ 2.26 µM).

In the case of `Cc1c(N2CC[C@H](N)C2)c(F)cn2c(=O)c(C(=O)O)cc(C3CC3)c12` [ABT-719], the MIC worked out at 0.02 µg/mL (≈ 0.0579 µM) in experiment [1]; 0.01 µg/mL (≈ 0.029 µM) in experiment [2]; 0.05 µg/mL (≈ 0.145 µM) in experiment [3]; 0.78 µg/mL (≈ 2.26 µM) in experiment [4]; 0.02 µg/mL (≈ 0.0579 µM) in experiment [5]; 0.01 µg/mL (≈ 0.029 µM) in experiment [6].

Take `Cc1c(N2CC[C@H](N)C2)c(F)cn2c(=O)c(C(=O)O)cc(CC3CC3)c12`: the MIC in experiment [1] amounted to 6.2 µg/mL (≈ 17.3 µM); in experiment [2], 0.78 µg/mL (≈ 2.17 µM); in experiment [3], 12.5 µg/mL (≈ 34.8 µM); in experiment [4], 25 µg/mL (≈ 69.6 µM); in experiment [5], 6.2 µg/mL (≈ 17.3 µM); in experiment [6] it was 1.56 µg/mL (≈ 4.34 µM).

With `C=Cc1cc(C(=O)O)c(=O)n2cc(F)c(N3CC[C@H](N)C3)c(C)c12`, the MIC in experiment [1] is 1.56 µg/mL (≈ 4.71 µM); in experiment [2], 0.2 µg/mL (≈ 0.604 µM); in experiment [3], 0.78 µg/mL (≈ 2.35 µM); in experiment [4], more than 100 µg/mL; in experiment [5], 1.56 µg/mL (≈ 4.71 µM); in experiment [6], 0.78 µg/mL (≈ 2.35 µM).

For the molecule `Cc1c(N2CC[C@H](N)C2)c(F)cn2c(=O)c(C(=O)O)cc(C(C)C)c12`, the minimal inhibitory concentration (MIC) in experiment [1] is 0.2 µg/mL (≈ 0.576 µM); in experiment [2], 0.39 µg/mL (≈ 1.12 µM); in experiment [3], 1.56 µg/mL (≈ 4.49 µM); in experiment [4], 6.2 µg/mL (≈ 17.8 µM); in experiment [5], 0.2 µg/mL (≈ 0.576 µM); in experiment [6], 0.1 µg/mL (≈ 0.288 µM).

On to `Cc1c(N2CC[C@H](N)C2)c(F)cn2c(=O)c(C(=O)O)cc(C3CCCC3)c12`, for which the MIC in experiment [1] is 12.5 µg/mL (≈ 33.5 µM); in experiment [2], 0.78 µg/mL (≈ 2.09 µM); in experiment [3] it was 25 µg/mL (≈ 66.9 µM); in experiment [4] it was 50 µg/mL (≈ 134 µM); in experiment [5], 12.5 µg/mL (≈ 33.5 µM); in experiment [6] it was 3.1 µg/mL (≈ 8.3 µM).

As to `CCC(C)c1cc(C(=O)O)c(=O)n2cc(F)c(N3CC[C@H](N)C3)c(C)c12` (stereo not given in full), the MIC was 12.5 µg/mL (≈ 34.6 µM) in experiment [1]; 1.56 µg/mL (≈ 4.32 µM) in experiment [2]; 50 µg/mL (≈ 138 µM) in experiment [3]; more than 100 µg/mL in experiment [4]; 50 µg/mL (≈ 138 µM) in experiment [5]; 6.2 µg/mL (≈ 17.2 µM) in experiment [6].

On to `Cc1cc(C(=O)O)c(=O)n2cc(F)c(N3CC[C@H](N)C3)c(C)c12`, for which the MIC came out at 0.39 µg/mL (≈ 1.22 µM) in experiment [1]; 0.05 µg/mL (≈ 0.157 µM) in experiment [2]; 3.1 µg/mL (≈ 9.71 µM) in experiment [3]; 12.5 µg/mL (≈ 39.1 µM) in experiment [4]; 0.39 µg/mL (≈ 1.22 µM) in experiment [5]; 0.1 µg/mL (≈ 0.313 µM) in experiment [6].

For the molecule `Cc1c(N2CC[C@H](N)C2)c(F)cn2c(=O)c(C(=O)O)cc(CC(C)(C)C)c12`, the MIC amounted to 6.2 µg/mL (≈ 16.5 µM) in experiment [1]; 12.5 µg/mL (≈ 33.3 µM) in experiment [3]; 50 µg/mL (≈ 133 µM) in experiment [4]; 3.1 µg/mL (≈ 8.26 µM) in experiment [5]; 1.56 µg/mL (≈ 4.16 µM) in experiment [6].

Consider `COCCc1cc(C(=O)O)c(=O)n2cc(F)c(N3CC[C@H](N)C3)c(C)c12`, for which the MIC in experiment [1] was more than 100 µg/mL; in experiment [2], 12.5 µg/mL (≈ 34.4 µM); in experiment [3], 100 µg/mL (≈ 275 µM); in experiment [4], more than 100 µg/mL; in experiment [6], 50 µg/mL (≈ 138 µM).

For the molecule `Cc1c(N2CC[C@H](N)C2)c(F)cn2c(=O)c(C(=O)O)cc(C3CCC3)c12`, the MIC in experiment [1] is 0.39 µg/mL (≈ 1.09 µM); in experiment [2] it was 0.05 µg/mL (≈ 0.139 µM); in experiment [3], 3.1 µg/mL (≈ 8.63 µM); in experiment [4], 12.5 µg/mL (≈ 34.8 µM); in experiment [5], 0.39 µg/mL (≈ 1.09 µM); in experiment [6], 0.1 µg/mL (≈ 0.278 µM).
